From publication PMC7997578, “Design, Synthesis, Dynamic Docking, Biochemical Characterization, and in Vivo Pharmacokinetics Studies of Novel Topoisomerase II Poisons with Promising Antiproliferative Activity” (Journal of Medicinal Chemistry, 2020)

Experiment: in vivo pharmacokinetics in mice
Conditions: mouse
Method: Finally, on the basis of the overall results and drug-like profile, 3f was selected as our lead for in vivo pharmacokinetics studies, as a preparatory characterization for future analyses of in vivo drug efficacy in animal models of cancer. We tested two different routes of administration: (i) intravenous (iv) injection at a concentration of 3 mg/kg (n = 3 for each time point) and oral (po) treatment at a dose of 10 mg/kg (n = 3 for each time point). Despite the relatively low thermodynamic solubility of 3f (30 μM in PBS), the compound reached the target concentration in the formulation used for the in vivo experiments. The mean plasma concentration versus time profile of 3f is shown in Figure 5, and the corresponding pharmacokinetic parameters are summarized in the inserted table.
Male C57B6/J male mice, 8 weeks old, 25-30 g were used (Charles River). All procedures were performed in accordance with the Ethical Guidelines of European Communities Council (Directive 2010/63/EU of 22 September 2010) and accepted by the Italian Ministry of Health. All efforts were made to minimize animal suffering and to use the minimal number of animals required to produce reliable results, according to the “3Rs concept”. Animals were group-housed in ventilated cages (n=5 mice per cage) and had free access to food and water. They were maintained under a 12-hour light/dark cycle (lights on at 8:00 am) at controlled temperature (21°C ± 1°C) and relative humi dity […]
4. Pharm acok inet ic studies
Compound 3f was administered orally (P.O.) and intravenously (I.V.) to C57B6/J male mice at 10 and 3 mg/Kg dose. Vehicle was: PEG400/Tween 80/Saline solution at 10/10/80 % in volume respectively. 3f was first dissolved in 100% PEG, then diluted to the final target concentration in this vehicle. The target concentration of 3f in the dosing solution was checked and confirmed by LC-MS .
The dosing solutions were diluted differently in the vehicle. The different dilutions were further diluted 4-fold with CH3CN prior to analysis. A reference standard was spiked in the vehicle to prepare a calibration curve over a 0.1 -10µM range. The ca librators were also diluted 4 -fold with CH3CN as for the dosing solution dilutions. The dosing solutions and calibrators were analys ed under the sam e conditions as for the plasma samples described below.
Three animals per dose were treated. Blood samples at 0, 15, 30, 60, 120, 240, and 480 minutes after administration were collected for PO arm. Blood samples at 0, 5, 15, 30, 60, 120 and 240 minutes after administration were collected for IV arm. Plasma was separated from blood by centrifugation for 15 minutes at 3500 rpm a 4°C, collected in a eppendorf tube and frozen ( -80°C). Brain samples were homogenized in Phosphate buffered saline a nd were then split in two aliquots kept at -80 °C until analysis. An aliquot was used for compound brain level evaluations, following the same procedure described below for plasma samples. The second aliquot was kept for protein content evaluation by bicinchoninic acid assay (BC A). Control animals treated with vehicle only w ere also included in the experimental protocol.
Plasma samples were centrifuged at 21.100g for 15min. at 4°C. A 50µl aliquot was transferred into a 96-Deep Well plate and 150µl of extraction so lution was added. The extraction solution was consisting of cold CH3CN spiked with 200n M of internal standard. The plate was centrifuged at 3270g for 15min. at 4°C. 80µl of supernatant was then transferred into a 96 -Deep Well plate and 80µl of H2O was added. A reference standard of the compound was spiked in naïve mouse plasma to prepare a calibration curve over a 1nM – 10µM range. Three quality control samples were prepared by spiking the compound in blank mouse plasma to the final concentrations of 20, 200 and 2000nM.
Calibrators and quality controls were extracted wit h the same e xtraction solution used for the plasma samples. The samples w ere analysed on a W aters ACQUITY UPLC/MS TQD system (Water s Inc. […]

Compound `O=C(Nc1cccc(OC(F)(F)F)c1)c1c(O)n(-c2ccccc2)c(=S)n(-c2ccccc2)c1=O` [3f, 6-Hydroxy-4-oxo-1,3-diphenyl-2-thioxo-N-(3-(trifluoromethoxy)phenyl)-1,2,3,4-tetrahydropyrimidine-5-carboxamide] has a concentration at 2 h (male, C57B6/J, plasma, iv 3 mg/kg, 2 h, read-out: plasma concentration after 2 h) of 551 ng/mL, a bioavailability (male, C57B6/J, plasma, po 10 mg/kg vs iv 3 mg/kg, based on AUC from t = 0 to 240 min, read-out: bioavailability F) of 8% and an AUCplasma (iv 3 mg/kg) of 295528 ng·min/mL. It also gave a CL (iv 3 mg/kg) of 4 mL/min/kg, a Clp (iv 3 mg/kg) of 0.004 L min^–1 kg^–1 and a Tmax (iv 3 mg/kg) of 0.083 h. The Vd (iv 3 mg/kg) was 3 L/kg, the “t½ (elimination phase)” value (iv 3 mg/kg) was 0.5 h and the “tolerability during PK studies” value (iv 3 mg/kg or po 10 mg/kg) was “well tolerated”. The treatment-related clinical signs (iv 3 mg/kg or po 10 mg/kg) was “no treatment-related clinical signs were observed”, the Cmax (iv 3 mg/kg, plasma) was 7366 ng/mL and the AUCplasma (po 10 mg/kg) was 77385 ng·min/mL. The Tmax (po 10 mg/kg) was 2 h, the Vd (po 10 mg/kg) was 18 L/kg and the “plasma concentration reached at 1 h and stably maintained for at least 6 h” value (po 10 mg/kg) was “about 400 ng/mL”. For the same compound, the “time of maximum concentration” value (po 10 mg/kg) was “approximately 2 h”, the “t½ (elimination phase)” value (po 10 mg/kg) was 3.17 h and the Cmax (po 10 mg/kg, plasma) was 428 ng/mL.
